32 compounds from US8242118B2, “Arylsulfonamide derivatives for use as CCR3 antagonists in the treatment of inflammatory and immunological disorders” (Axikin Pharmaceuticals Inc., priority 2001, dated 2012) can be followed below.

Where a name gives a salt, the structure may show the parent alone.

One series addresses T1, Human CCR3 (Homo sapiens, UniProt P51677).
T1 construct: The cloned CCR3 cDNA was constructed with pcDNA3 vector and transfected into a IC562 cell line; expressed in transfected cells
T1 sequence (P51677 1-355): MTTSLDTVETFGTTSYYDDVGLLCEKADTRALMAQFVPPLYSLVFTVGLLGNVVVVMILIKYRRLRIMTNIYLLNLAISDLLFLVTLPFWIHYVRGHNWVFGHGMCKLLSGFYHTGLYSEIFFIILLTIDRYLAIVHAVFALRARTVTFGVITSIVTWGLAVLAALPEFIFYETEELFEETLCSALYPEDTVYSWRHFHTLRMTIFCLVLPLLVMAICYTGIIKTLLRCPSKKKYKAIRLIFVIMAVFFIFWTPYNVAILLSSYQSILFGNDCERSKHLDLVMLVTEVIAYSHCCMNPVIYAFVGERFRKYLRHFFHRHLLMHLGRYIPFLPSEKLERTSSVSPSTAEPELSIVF
As to the kind of experiment: Receptor binding assay (RBA), [125I]-eotaxin. The settings on record: human CCR3-transformed K562 cells, 0.1 nM [125I]-eotaxin; compounds of about 40 to 90% purity; read-out: Activity grade RBA (IC50 class). The method, then: [Determination of IC50 Values of Compounds in Receptor Binding Assay]
• Human CCR3-transformed K562 cells were used. The cloned CCR3 cDNA was constructed with pcDNA3 vector and transfected into a IC562 cell line. The human CCR3-transformed K562 cells were maintained in RPMI-1640 (Cat.#22400-089, Life Technologies) supplemented with 10% FCS (Cat.#A-1115-L, Hyclone), 55 μM 2-mercaptoethanol (Cat.#21985-023, Life Technologies), 1 mM sodium pyruvate (Cat.#11360-070, Life Technologies), 100 units/ml of penicillin G and 100 μg/ml of streptomycin (Cat.#15140-122, Life Technologies), and 0.4 mg/ml of Geneticin (Cat.#10131-035, Life Technologies)(hereinafter called “culture medium”). Before the receptor binding assay, cells were pretreated with 5 mM sodium butyrate (Cat.#193-01522, Wako)-containing the culture medium (2×10^5 cells/ml) for 20-24 hours to increase the expression of CCR3. (2) Receptor Binding Assay (RBA) • Butyrate-pretreated cells, suspended in binding buffer (25 mM HEPES pH 7.6, 1 mM CaCl2, 5 mM MgCl2, 0.5% BSA, 0.1% NaN3) at a cell density of 2×10^6 cells/ml, were added into 60 μl/well in the 96-well round bottom polypropylene plate (Cat.#3365, Costar). Compounds, diluted with the binding buffer (4-times higher concentration of the final concentration), were added into 30 μl/well in the polypropylene plate. [^125I]-labeled human eotaxin (Cat.#IM290, Amersham Pharmacia Biotech), diluted with the binding buffer at the concentration of 0.4 nM (final concentration; 0.1 nM), was added into 30 μl/well in the polypropylene plate. Total 120 μl/well of binding reaction mixture (60 μl/well of cell suspension, 30 μl/well of compound solution, and 30 μl/well of [^125I]-labeled eotaxin) were incubated in the polypropylene plate for 1 hour at room temperature after the incubation, 100 μl/well of the reaction mixture was transferred to a filtration plate (Cat.#MAFB-N0B, Millipore), and washed with the washing buffer (25 mM HEPES pH 7.6, 1 mM CaCl2, 5 mM MgCl2, 0.5% BSA, 0.1% NaN3, 0.5 M NaCl) twice. The 96-well filtration plate was pretreated with 100 μl/well of 0.5% polyethylenimine (Cat.#P-3143, Sigma) for 2-4 hours at room temperature and washed with the washing buffer twice before use. The non-specific binding was determined by parallel incubation in the presence of 500 nM of non-labeled eotaxin (Cat.#23209, Genzyme Techne). The radioactivities remained on the filter were measured by liquid scintillation counter (TopCount™, Packard) after an addition of 45 μl/well of scintillant (Microscint20, Cat.#6013621, Packard). The inhibition percent at each concentration of compound was calculated, and IC50 values were determined from the inhibition curve. [Determination of IC50 Values of Compounds in Calcium Mobilization Assay] (IC50 Ca2+) (1) Cell • Human CCR3-transformed K562 cells were used. The human CCR3-transformed K562 cells were maintained in RPMI-1640 supplemented with 10% FCS, 55 μM 2-mercaptoethanol (Cat.#21985-023, Life Technologies), 1 mM sodium pyruvate, 100 units/ml of penicillin G and 100 μg/ml of streptomycin and 0.4 mg/ml of Geneticin. Before the calcium mobilization assay, cells were pretreated with 5 mM sodium butyrate-containing the culture medium (2×10^5 cells/ml) for 20-24 hours to increase the expression of CCR3. (2) Calcium Mobilization Assay • Butyrate-pretreated cells were loaded with Fluo-3AM (Cat.#F-1242, Molecular Probes) in loading buffer (Hanks' solution Cat.#05906 Nissui, 20 mM HEPES pH 7.6, 0.1% BSA, 1 mM probenecid Cat.#P-8761 Sigma, 1 μM Fluo-3AM, 0.01% pluronic F-127 Cat.#P-6866 Molecular Probes) at a cell density of 1×10^7 cells/ml. Then, cells were washed with calcium assay buffer (Hanks' solution Cat.#05906 Nissui, 20 mM HEPES pH 7.6, 0.1% BSA, 1 mM Probenecid Cat.#P-8761 Sigma). The cell suspension (3.3×10^6 cells/ml) was added into 60 μl/well in the 96-well clear bottom black plate (Cat.#3904, Costar). […]

Take `Cc1cc(C)cc(Oc2ccc([N+](=O)[O-])cc2S(=O)(=O)N2CCN(C(=O)OC(C)(C)C)CC2)c1` [Example 1-1, tert-butyl 4-{[2-(3,5-dimethylphenoxy)-5-nitrophenyl]sulfonyl}-1-piperazinecarboxylate]: the melting point (in general, the temperature, or range, at which the solid turns liquid) is 232 to 233 °C. For the same compound, the IC50 (in general, the point on the concentration scale where inhibition reaches its midpoint) on Human CCR3 was above 10000 nM.
As for `Cc1cc(C)cc(Oc2ccc([N+](=O)[O-])cc2S(=O)(=O)N2CCNCC2)c1` [Example 1-2, 1-{[2-(3,5-dimethylphenoxy)-5-nitrophenyl]sulfonyl}piperazine hydrochloride], the 50% inhibitory concentration (IC50) on Human CCR3 was below 1000 nM.
`Cl.O=[N+]([O-])c1ccc(Oc2cc(F)cc(F)c2)c(S(=O)(=O)N2CCNCC2)c1` [Example 1-4] yielded a melting point of 273 to 274 °C. Further, at Human CCR3, the IC50 is below 1000 nM.
Regarding `COc1cc(OC)cc(Oc2ccc([N+](=O)[O-])cc2S(=O)(=O)N2CCNCC2)c1.Cl` [Example 1-5], the melting point lay in the range of 211 to 213 °C. In addition, on Human CCR3, the IC50 is above 10000 nM.
In turn, `Cl.O=[N+]([O-])c1ccc(Oc2cc(C(F)(F)F)cc(C(F)(F)F)c2)c(S(=O)(=O)N2CCNCC2)c1` [Example 1-6] gave a melting point of 188 to 191 °C. For the same compound, at Human CCR3, the IC50 is below 1000 nM.
`CC(C)(C)c1cc(Oc2ccc([N+](=O)[O-])cc2S(=O)(=O)N2CCNCC2)cc(C(C)(C)C)c1.Cl` [Example 1-7] had a melting point of 141 to 143 °C. The IC50 on Human CCR3 is above 10000 nM.
Taken in the same sequence, the figures for `Cc1cc(Oc2ccc([N+](=O)[O-])cc2S(=O)(=O)N2CCNCC2)cc(C(C)C)c1.Cl` [Example 1-8] were 182 to 185 °C and below 1000 nM.
`CC(C)c1cccc(Oc2ccc([N+](=O)[O-])cc2S(=O)(=O)N2CCNCC2)c1.Cl` [Example 1-9]: the melting point lay in the range of 168 to 170 °C. Also, on Human CCR3, the IC50 is below 1000 nM.
In turn, `Cl.N#Cc1cccc(Oc2ccc([N+](=O)[O-])cc2S(=O)(=O)N2CCNCC2)c1` [Example 1-10] yielded a melting point of 265 to 267 °C. In addition, the IC50 at Human CCR3 was in the range of 1000 to 10000 nM.
Turning to `O=[N+]([O-])c1ccc(Oc2ccccc2)c(S(=O)(=O)N2CCNCC2)c1` [Example 1-18], on Human CCR3, the IC50 is 1000 to 10000 nM.
In the case of `COc1ccc(Oc2ccc([N+](=O)[O-])cc2S(=O)(=O)N2CCNCC2)cc1` [Example 1-19], the half-inhibitory concentration (IC50) at Human CCR3 was above 10000 nM.
`O=[N+]([O-])c1ccc(Oc2ccc(F)cc2)c(S(=O)(=O)N2CCNCC2)c1` [Example 1-20]: the 50% inhibitory concentration (IC50) at Human CCR3 is above 10000 nM.
On the same count and under the same terms, the figure for `CC(C)(C)c1ccc(Oc2ccc([N+](=O)[O-])cc2S(=O)(=O)N2CCNCC2)cc1` [Example 1-21] is above 10000 nM; for `O=[N+]([O-])c1ccc(Oc2ccc(Cl)cc2)c(S(=O)(=O)N2CCNCC2)c1` [Example 1-22] it is above 10000 nM; for `O=[N+]([O-])c1ccc(Oc2cccc(F)c2)c(S(=O)(=O)N2CCNCC2)c1` [Example 1-25] it is below 1000 nM.
As to `N#Cc1ccccc1Oc1ccc([N+](=O)[O-])cc1S(=O)(=O)N1CCNCC1` [Example 1-29], on Human CCR3, the 50% inhibitory concentration (IC50) fell in the range of 1000 to 10000 nM.
With `Cc1cc(Oc2ccc([N+](=O)[O-])cc2S(=O)(=O)N2CCNCC2)c(C(C)C)cc1Cl` [Example 1-81], on Human CCR3, the half-inhibitory concentration (IC50) is above 10000 nM.
With `Cc1cc(C)cc(Oc2ccc([N+](=O)[O-])cc2S(=O)(=O)N2CCN(CCOCCO)CC2)c1` [Example 1-89], on Human CCR3, the IC50 is below 1000 nM.
As for `Cc1cc(C)cc(Oc2ccc([N+](=O)[O-])cc2S(=O)(=O)N2CCCNCC2)c1` [Example 1-90], the IC50 at Human CCR3 is below 1000 nM.
`Cc1cc(C)cc(Oc2ccc([N+](=O)[O-])cc2S(=O)(=O)N2CC(C)NC(C)C2)c1` (stereo not shown) [Example 1-92]: on Human CCR3, the IC50 was below 1000 nM.
In the case of `CC1CN(S(=O)(=O)c2cc([N+](=O)[O-])ccc2Oc2cc(Cl)cc(Cl)c2)CC(C)N1` (stereo not shown) [Example 1-93], the concentration for half-maximal inhibition (IC50) at Human CCR3 is below 1000 nM.
Regarding `Cc1cc(C)cc(Sc2ccc([N+](=O)[O-])cc2S(=O)(=O)N2CCNCC2)c1` [Example 2-1, 1-({2-[(3,5-dimethylphenyl)-sulfanyl]-5-nitrophenyl}sulfonyl)piperazine hydrochloride], at Human CCR3, the 50% inhibitory concentration (IC50) is below 1000 nM.
Take `Cc1cc(C)cc(Oc2ccc(N)cc2S(=O)(=O)N2CCN(C(=O)OC(C)(C)C)CC2)c1` [Example 5-1, tert-butyl 4-{[5-amino-2-(3,5-dimethyl-phenoxy)phenyl]sulfonyl}-1-piperazinecarboxylate]: at Human CCR3, the IC50 was above 10000 nM.
For `Cc1cc(C)cc(Oc2ccc(Cl)cc2S(=O)(=O)N2CCNCC2)c1` [Example 5-2, 1-{[5-chloro-2-(3,5-dimethylphenoxy)phenyl]sulfonyl}piperazine hydrochloride], the IC50 on Human CCR3 is below 1000 nM.
As for `Cc1cc(C)cc(Oc2ccc(O)cc2S(=O)(=O)N2CCNCC2)c1` [Example 6-1, 4-(3,5-dimethylphenoxy)-3-(1-piperazinylsulfonyl)phenol hydrochloride], the IC50 on Human CCR3 is above 10000 nM.
Regarding `COc1ccc(Oc2cc(C)cc(C)c2)c(S(=O)(=O)N2CCNCC2)c1` [Example 6-2, hydrochloride], the IC50 on Human CCR3 is below 1000 nM.
On the same count and under the same terms, the figure for `Cc1cc(C)cc(Oc2ccc(Br)cc2S(=O)(=O)N2CCNCC2)c1` [Example 8-1, 1-{[5-bromo-2-(3,5-dimethylphenoxy)phenyl]sulfonyl}piperazine hydrochloride] is below 1000 nM; for `Cc1cc(C)cc(Oc2ccc(C#N)cc2S(=O)(=O)N2CCNCC2)c1` [Example 9-1, 4-(3,5-dimethylphenoxy)-3-(1-piperazinylsulfonyl)benzonitrile hydrochloride] it is below 1000 nM.
The same measure, in the same setting: as for `CN(C)C(=O)c1ccc(Oc2cc(Cl)cc(Cl)c2)c(S(=O)(=O)N2CCNCC2)c1` [Example 10-1, 4-(3,5-dichlorophenoxy)-N,N-dimethyl-3-(1-piperazinylsulfonyl)benzamide hydrochloride], the figure is 1000 to 10000 nM; as for `Cc1cc(C)cc(Oc2cc3cc[nH]c3cc2S(=O)(=O)N2CCNCC2)c1` [Example 11-1, 5-(3,5-dimethylphenoxy)-6-(1-piperazinylsulfonyl)-1H-indole trifluoroacetate], above 10000 nM.
As to `N#Cc1ccc(Nc2cc(Cl)cc(Cl)c2)c(S(=O)(=O)N2CCNCC2)c1` [Example 20-1, 4-[(3,5-dichlorophenyl)amino]-3-(1-piperazinylsulfonyl)benzonitrile hydrochloride], the half-maximal inhibitory concentration (IC50) at Human CCR3 was below 1000 nM.
In the case of `Cc1cc(C)cc(Oc2ccncc2S(=O)(=O)N2CCNCC2)c1` [Example 25-1, 1-{[4-(3,5-dimethylphenoxy)-3-pyridinyl]sulfonyl}piperazine hydrochloride], on Human CCR3, the concentration for half-maximal inhibition (IC50) is 1000 to 10000 nM.
